# ChEMBL document CHEMBL3638468, “Amides of acetic and propionic acids” (2015)
# Target: Neuronal acetylcholine receptor subunit alpha-7 (Rattus norvegicus, UniProt Q05941)
# Assay: Binding Assay: Rat brain tissue (hippocampus or whole brain) is homogenized in homogenization buffer (10% w/v). [0.32 M sucrose, 1 mM EDTA; 0.1 mM phenylmethylsulfonyl fluoride (PMSF), 0.01% (w/v) NaN3, pH 7.4, 4 C.] at 600 rpm in a glass homogenizer. The homogenate is centrifuged (1000xg, 4 C., 10 min) and the supernatant is removed. The pellet is resuspended (20% w/v) and the suspension is centrifuged (1000xg, 4 C., 10 mM). The two supernatants are combined and centrifuged (15 000xg, 4 C., 30 min). The pellet obtained in this way is referred to as the P2 fraction.The P2 pellet is washed twice with binding buffer (50 mM Tris-HCl, 1 mM MgCl2, 120 mM NaCl, 5 mM KCl, 2 mM CaCl2, pH 7.4), and centrifuged (15 000xg, 4 C., 30 min).The P2 membranes are resuspended in binding buffer and incubated in a volume of 250 ul (amount of membrane protein 0.1-0.5 mg) in the presence of 1-5 nM [3H]methyllycaconitine, 0.1% (w/v) BSA (bovine serum albumin) and various concentrations of the test substance.
# Assay type: tissue-based
# Neuronal acetylcholine receptor subunit alpha-7, sequence (Q05941 whole entry): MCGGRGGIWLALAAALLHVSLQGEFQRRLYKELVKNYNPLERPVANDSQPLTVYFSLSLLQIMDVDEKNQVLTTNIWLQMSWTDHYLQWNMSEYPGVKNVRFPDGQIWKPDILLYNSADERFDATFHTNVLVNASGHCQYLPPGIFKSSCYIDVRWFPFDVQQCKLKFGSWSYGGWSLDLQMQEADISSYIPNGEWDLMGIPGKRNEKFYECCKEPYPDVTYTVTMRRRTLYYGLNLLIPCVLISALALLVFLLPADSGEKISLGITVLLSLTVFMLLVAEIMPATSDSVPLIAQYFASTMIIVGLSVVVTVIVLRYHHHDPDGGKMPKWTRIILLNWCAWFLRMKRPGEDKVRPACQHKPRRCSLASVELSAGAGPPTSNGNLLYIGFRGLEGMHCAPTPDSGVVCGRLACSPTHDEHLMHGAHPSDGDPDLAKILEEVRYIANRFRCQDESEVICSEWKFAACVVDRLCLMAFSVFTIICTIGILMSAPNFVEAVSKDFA
smiles,measurement,value
O=C(CC1CN2CCC1CC2)Nc1cc2ccc(Br)cc2s1 (stereo unspecified),Ki,200 nM
